Measurements reported in article PMC9475448, “What a difference a methylene makes: replacing Glu with Asp or Aad in the Lys-urea-Glu pharmacophore of PSMA-targeting radioligands to reduce kidney and salivary gland uptake” (Theranostics, 2022).

Experiments:
[1] = system: LNCaP tumor-bearing mice; assay: Ex vivo biodistribution of 177Lu-labeled ligands in LNCaP tumor-bearing NRG mice
[2] = system: LNCaP tumor and major mouse organs/tissues; assay: Radiation dosimetry calculation with OLINDA software from biodistribution data; conditions: 25-g mouse
Description: The biodistribution data (available in the Supplemental Table s 5- 6) were used to determine the kinetics input values required by OLINDA. First, each of the values was decayed to its corresponding time point (the values on the table are shown at injection time). Then the different time-points of the uptake data (%IA/g) for each organ were fitted to both mono- exponential ( ) and bi-exponential ( ) functions using in-house software developed in Python. The best fit was selected based on maximizing the coefficient of determination (R2) of the fit and minimizing the residuals. The areas under the curves were analytically calculated based on the parameters obtained from the best fit of each organ and this provided the kinetic input values required by OLINDA.
In the mouse case, the adrenals, blood, fat, and muscle are not modeled in the phantom. These organs were grouped together and included in what OLINDA calls the remainder of the body .
Lastly, the numbers of decays in the tumors were also calculated based on the biodistribution data of the mice and the values were inputted into the sphere model available in OLINDA.

[3] = system: LNCaP tumor-bearing mice; assay: Longitudinal SPECT/CT imaging of 177Lu-labeled ligands; format: in vivo
Experimental: SPECT/CT imaging experiments were conducted using the MILabs (Utrecht, The Netherlands) U-SPECT-II/CT scanner. Each tumor-bearing mouse (n = 1-2 was injected with ∼37 MBq (50-250 pmol) of ^177Lu-labeled compound through a lateral caudal tail vein. The mice were imaged at 1, 4, 24, 72, and 120 h after injection. At each time point, a 5-min CT scan was conducted first for anatomical reference followed by 2 × 30-min static emission scans acquired in list mode.

[4] = system: LNCaP tumor-bearing mice; assay: Radioligand therapy study in LNCaP tumor-bearing NRG mice; conditions: 37 MBq injected
[5] = 1 h post-injection, listed as [177Lu]Lu-PSMA-617
[6] = 4 h post-injection, listed as [177Lu]Lu-PSMA-617

[^177Lu]Lu-PSMA-617
Adrenal glands uptake ([1]; 1 h post-injection): 3.025 ± 0.939 %IA/g
Blood uptake ([1]; 1 h post-injection): 0.750 ± 0.119 %IA/g
Blood:Salivary gland uptake ratio ([1]; 1 h post-injection): < 1.0
Bone uptake ([1]; 1 h post-injection): 0.118 ± 0.026 %IA/g
Brain uptake ([1]; 1 h post-injection): 0.028 ± 0.007 %IA/g
Fat uptake ([1]; 1 h post-injection): 0.327 ± 0.069 %IA/g
Heart uptake ([1]; 1 h post-injection): 0.294 ± 0.045 %IA/g
Intestines uptake ([1]; 1 h post-injection): 0.275 ± 0.032 %IA/g
Kidneys uptake ([1]; 1 h post-injection): 79.7±11.7 %IA/g
Lacrimal glands uptake ([1]; 1 h post-injection): 0.068 ± 0.022 %IA/g
Liver uptake ([1]; 1 h post-injection): 0.224 ± 0.030 %IA/g
Lungs uptake ([1]; 1 h post-injection): 1.377 ± 0.152 %IA/g
Muscle uptake ([1]; 1 h post-injection): 0.177 ± 0.032 %IA/g
Pancreas uptake ([1]; 1 h post-injection): 0.387 ± 0.074 %IA/g
Salivary glands uptake ([1]; 1 h post-injection): 1.78±0.38 %IA/g
Spleen uptake ([1]; 1 h post-injection): 3.666 ± 1.342 %IA/g
Stomach uptake ([1]; 1 h post-injection): 0.130 ± 0.054 %IA/g
Testes uptake ([1]; 1 h post-injection): 0.433 ± 0.068 %IA/g
Thyroid uptake ([1]; 1 h post-injection): 0.556 ± 0.073 %IA/g
Tumor uptake ([1]; 1 h post-injection): 16.5±2.46 %IA/g
Tumor:Blood uptake ratio ([1]; 1 h post-injection): 22.5 ± 4.07
Tumor:Kidney uptake ratio ([1]; 1 h post-injection): 0.21 ± 0.04
Tumor:Muscle uptake ratio ([1]; 1 h post-injection): 94.3 ± 12.8
Tumor:Salivary gland uptake ratio ([1]; 1 h post-injection): 9.81 ± 3.33
Blood:Salivary gland uptake ratio [1, 5]: 0.44 ± 0.12
Kidneys uptake [1, 5]: 79.67 ± 11.68 %IA/g
Salivary glands uptake [1, 5]: 1.775 ± 0.381 %IA/g
Tumor uptake [1, 5]: 16.48 ± 2.456 %IA/g
Adrenal glands uptake ([1]; 4 h post-injection): 0.469 ± 0.527 %IA/g
Blood uptake ([1]; 4 h post-injection): 0.031 ± 0.017 %IA/g
Blood:Salivary gland uptake ratio ([1]; 4 h post-injection): 0.20 ± 0.06
Bone uptake ([1]; 4 h post-injection): 0.017 ± 0.007 %IA/g
Brain uptake ([1]; 4 h post-injection): 0.011 ± 0.001 %IA/g
Fat uptake ([1]; 4 h post-injection): 0.028 ± 0.011 %IA/g
Heart uptake ([1]; 4 h post-injection): 0.026 ± 0.006 %IA/g
Intestines uptake ([1]; 4 h post-injection): 0.135 ± 0.042 %IA/g
Kidneys uptake ([1]; 4 h post-injection): 13.1±9.60 %IA/g
Lacrimal glands uptake ([1]; 4 h post-injection): 0.079 ± 0.056 %IA/g
Liver uptake ([1]; 4 h post-injection): 0.056 ± 0.012 %IA/g
Lungs uptake ([1]; 4 h post-injection): 0.123 ± 0.052 %IA/g
Muscle uptake ([1]; 4 h post-injection): 0.020 ± 0.004 %IA/g
Pancreas uptake ([1]; 4 h post-injection): 0.031 ± 0.012 %IA/g
Salivary glands uptake ([1]; 4 h post-injection): 0.14±0.04 %IA/g
Spleen uptake ([1]; 4 h post-injection): 0.222 ± 0.117 %IA/g
Stomach uptake ([1]; 4 h post-injection): 0.029 ± 0.017 %IA/g
Testes uptake ([1]; 4 h post-injection): 0.055 ± 0.018 %IA/g
Thyroid uptake ([1]; 4 h post-injection): 0.065 ± 0.027 %IA/g
Tumor uptake ([1]; 4 h post-injection): 14.24 ± 1.804 %IA/g
Tumor:Blood uptake ratio ([1]; 4 h post-injection): 593 ± 338
Tumor:Kidney uptake ratio ([1]; 4 h post-injection): 1.58 ± 0.98
Tumor:Muscle uptake ratio ([1]; 4 h post-injection): 748 ± 180
Tumor:Salivary gland uptake ratio ([1]; 4 h post-injection): 105 ± 28.0
Kidneys uptake [1, 6]: 13.06 ± 9.598 %IA/g
Salivary glands uptake [1, 6]: 0.142 ± 0.039 %IA/g
Adrenal glands uptake ([1]; 24 h post-injection): 0.032 ± 0.010 %IA/g
Blood uptake ([1]; 24 h post-injection): 0.004 ± 0.001 %IA/g
Blood:Salivary gland uptake ratio ([1]; 24 h post-injection): 0.10 ± 0.02
Bone uptake ([1]; 24 h post-injection): 0.009 ± 0.005 %IA/g
Brain uptake ([1]; 24 h post-injection): 0.010 ± 0.002 %IA/g
Fat uptake ([1]; 24 h post-injection): 0.009 ± 0.008 %IA/g
Heart uptake ([1]; 24 h post-injection): 0.009 ± 0.003 %IA/g
Intestines uptake ([1]; 24 h post-injection): 0.059 ± 0.039 %IA/g
Kidneys uptake ([1]; 24 h post-injection): 0.658 ± 0.159 %IA/g
Lacrimal glands uptake ([1]; 24 h post-injection): 0.050 ± 0.024 %IA/g
Liver uptake ([1]; 24 h post-injection): 0.043 ± 0.027 %IA/g
Lungs uptake ([1]; 24 h post-injection): 0.028 ± 0.005 %IA/g
Muscle uptake ([1]; 24 h post-injection): 0.005 ± 0.001 %IA/g
Pancreas uptake ([1]; 24 h post-injection): 0.008 ± 0.002 %IA/g
Salivary glands uptake ([1]; 24 h post-injection): 0.018 ± 0.003 %IA/g
Spleen uptake ([1]; 24 h post-injection): 0.039 ± 0.007 %IA/g
Stomach uptake ([1]; 24 h post-injection): 0.044 ± 0.011 %IA/g
Testes uptake ([1]; 24 h post-injection): 0.018 ± 0.003 %IA/g
Tumor uptake ([1]; 24 h post-injection): 13.18 ± 3.151 %IA/g
Tumor:Blood uptake ratio ([1]; 24 h post-injection): 4045 ± 1693
Tumor:Kidney uptake ratio ([1]; 24 h post-injection): 21.6 ± 8.83
Tumor:Muscle uptake ratio ([1]; 24 h post-injection): 2905 ± 453
Tumor:Salivary gland uptake ratio ([1]; 24 h post-injection): 371 ± 129
Adrenal glands uptake ([1]; 72 h post-injection): 0.007 ± 0.004 %IA/g
Blood uptake ([1]; 72 h post-injection): 0.002 ± 0.001 %IA/g
Blood:Salivary gland uptake ratio ([1]; 72 h post-injection): 0.19 ± 0.08
Bone uptake ([1]; 72 h post-injection): 0.006 ± 0.003 %IA/g
Brain uptake ([1]; 72 h post-injection): 0.008 ± 0.002 %IA/g
Fat uptake ([1]; 72 h post-injection): 0.006 ± 0.012 %IA/g
Heart uptake ([1]; 72 h post-injection): 0.004 ± 0.001 %IA/g
Intestines uptake ([1]; 72 h post-injection): 0.062 ± 0.080 %IA/g
Kidneys uptake ([1]; 72 h post-injection): 0.181 ± 0.046 %IA/g
Lacrimal glands uptake ([1]; 72 h post-injection): 0.023 ± 0.009 %IA/g
Liver uptake ([1]; 72 h post-injection): 0.021 ± 0.004 %IA/g
Lungs uptake ([1]; 72 h post-injection): 0.011 ± 0.002 %IA/g
Muscle uptake ([1]; 72 h post-injection): 0.004 ± 0.004 %IA/g
Pancreas uptake ([1]; 72 h post-injection): 0.003 ± 0.001 %IA/g
Salivary glands uptake ([1]; 72 h post-injection): 0.012 ± 0.003 %IA/g
Spleen uptake ([1]; 72 h post-injection): 0.016 ± 0.005 %IA/g
Stomach uptake ([1]; 72 h post-injection): 0.096 ± 0.155 %IA/g
Testes uptake ([1]; 72 h post-injection): 0.014 ± 0.012 %IA/g
Thyroid uptake ([1]; 72 h post-injection): 0.009 ± 0.002 %IA/g
Tumor uptake ([1]; 72 h post-injection): 11.0±2.12 %IA/g
Tumor:Blood uptake ratio ([1]; 72 h post-injection): 5784 ± 1756
Tumor:Kidney uptake ratio ([1]; 72 h post-injection): 62.4 ± 11.1
Tumor:Muscle uptake ratio ([1]; 72 h post-injection): 4712 ± 3587
Tumor:Salivary gland uptake ratio ([1]; 72 h post-injection): 969 ± 241
Tumor uptake ([1]; 72 h post-injection, listed as [177Lu]Lu-PSMA-617): 10.97 ± 2.122 %IA/g
Adrenal glands uptake ([1]; 120 h post-injection): 0.005 ± 0.008 %IA/g
Blood uptake ([1]; 120 h post-injection): 0.002 ± 0.001 %IA/g
Blood:Salivary gland uptake ratio ([1]; 120 h post-injection): 0.42 ± 0.19
Bone uptake ([1]; 120 h post-injection): 0.003 ± 0.004 %IA/g
Brain uptake ([1]; 120 h post-injection): 0.007 ± 0.001 %IA/g
Fat uptake ([1]; 120 h post-injection): 0.002 ± 0.001 %IA/g
Heart uptake ([1]; 120 h post-injection): 0.002 ± 0.001 %IA/g
Intestines uptake ([1]; 120 h post-injection): 0.012 ± 0.011 %IA/g
Kidneys uptake ([1]; 120 h post-injection): 0.111 ± 0.054 %IA/g
Lacrimal glands uptake ([1]; 120 h post-injection): 0.021 ± 0.010 %IA/g
Liver uptake ([1]; 120 h post-injection): 0.016 ± 0.004 %IA/g
Lungs uptake ([1]; 120 h post-injection): 0.006 ± 0.001 %IA/g
Muscle uptake ([1]; 120 h post-injection): 0.002 ± 0.002 %IA/g
Pancreas uptake ([1]; 120 h post-injection): 0.001 ± 0.001 %IA/g
Salivary glands uptake ([1]; 120 h post-injection): 0.005 ± 0.002 %IA/g
Spleen uptake ([1]; 120 h post-injection): 0.013 ± 0.004 %IA/g
Stomach uptake ([1]; 120 h post-injection): 0.013 ± 0.013 %IA/g
Testes uptake ([1]; 120 h post-injection): 0.006 ± 0.002 %IA/g
Thyroid uptake ([1]; 120 h post-injection): 0.005 ± 0.001 %IA/g
Tumor uptake ([1]; 120 h post-injection): 12.3±5.52 %IA/g
Tumor:Blood uptake ratio ([1]; 120 h post-injection): 8895 ± 4881
Tumor:Kidney uptake ratio ([1]; 120 h post-injection): 126 ± 76.0
Tumor:Muscle uptake ratio ([1]; 120 h post-injection): 11627 ± 7865
Tumor:Salivary gland uptake ratio ([1]; 120 h post-injection): 3324 ± 2257
Tumor uptake ([1]; 120 h post-injection, listed as [177Lu]Lu-PSMA-617): 12.25 ± 5.519 %IA/g
Kinetics value ([2]; source organ Brain): 6.64E-03 MBq-h/MBq
Kinetics value ([2]; source organ Cortical bone): 8.28E-03 MBq-h/MBq
Kinetics value ([2]; source organ Heart contents): 3.28E-03 MBq-h/MBq
Kinetics value ([2]; source organ Kidneys): 8.23E-01 MBq-h/MBq
Kinetics value ([2]; source organ Large intestine): 8.80E-03 MBq-h/MBq
Kinetics value ([2]; source organ Liver): 6.38E-02 MBq-h/MBq
Kinetics value ([2]; source organ Lungs): 4.85E-03 MBq-h/MBq
Kinetics value ([2]; source organ Pancreas): 4.76E-03 MBq-h/MBq
Kinetics value ([2]; source organ Remainder of the body): 1.68E-01 MBq-h/MBq
Kinetics value ([2]; source organ Small intestine): 2.63E-02 MBq-h/MBq
Kinetics value ([2]; source organ Spleen): 1.41E-02 MBq-h/MBq
Kinetics value ([2]; source organ Stomach): 2.34E-04 MBq-h/MBq
Kinetics value ([2]; source organ Testes): 4.23E-03 MBq-h/MBq
Kinetics value ([2]; source organ Thyroid): 4.01E-04 MBq-h/MBq
Kinetics value ([2]; source organ Urinary bladder contents): 8.04E-01 MBq-h/MBq
Excretion pathway (SPECT imaging) ([3]; mouse, in vivo): excreted mainly via the renal pathway
Tumor size change in SPECT/CT images ([3]; ~37 MBq injected): tumors shrank from Day 1 to Day 5
Median survival [4]: 63 days
